Here are results for 23 compounds from US20240083900A1, “PYRAZOLO[1,5-A]PYRAZINE DERIVATIVES AS BTK INHIBITORS” (BIOGEN MA INC., priority 2020, published 2024).

Where two headings read alike, the source gives them in different places.

For one test, the target named is BTK (Homo sapiens (Human), UniProt Q06187). Briefly: In Vitro BTK Kinase Assay: Btk-PolyGAT-LS Assay. The test is classed as biochemical. Particulars: BTK enzyme 0.25 nM, ATP 10 μM, polyGAT 100 nM, 30 minutes incubation, TRF readout; read-out: IC50. In short, it runs like this:
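Human BTK activity was measured with final 10 μM ATP and 100 nM polyGAT substrate in pH 7.5 Tris buffer with 10 mM MgCl2, DTT, Triton X-100 and casein.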

For test [1], the system named is CD69 expression on CD19+ B cells in human whole blood stimulated with anti-human IgD. Briefly: In Vitro whole blood CD69 Assay. The test is classed as cell-based. Particulars: human heparinized whole blood, anti-human IgD stimulation overnight, percentage of CD19+ B cells expressing CD69, flow cytometry. (In flow cytometry, cells or beads pass a laser one at a time.)

Setting [2] is: Homo sapiens, B-cell, read-out: IC50.

BTK, sequence (Q06187 whole entry): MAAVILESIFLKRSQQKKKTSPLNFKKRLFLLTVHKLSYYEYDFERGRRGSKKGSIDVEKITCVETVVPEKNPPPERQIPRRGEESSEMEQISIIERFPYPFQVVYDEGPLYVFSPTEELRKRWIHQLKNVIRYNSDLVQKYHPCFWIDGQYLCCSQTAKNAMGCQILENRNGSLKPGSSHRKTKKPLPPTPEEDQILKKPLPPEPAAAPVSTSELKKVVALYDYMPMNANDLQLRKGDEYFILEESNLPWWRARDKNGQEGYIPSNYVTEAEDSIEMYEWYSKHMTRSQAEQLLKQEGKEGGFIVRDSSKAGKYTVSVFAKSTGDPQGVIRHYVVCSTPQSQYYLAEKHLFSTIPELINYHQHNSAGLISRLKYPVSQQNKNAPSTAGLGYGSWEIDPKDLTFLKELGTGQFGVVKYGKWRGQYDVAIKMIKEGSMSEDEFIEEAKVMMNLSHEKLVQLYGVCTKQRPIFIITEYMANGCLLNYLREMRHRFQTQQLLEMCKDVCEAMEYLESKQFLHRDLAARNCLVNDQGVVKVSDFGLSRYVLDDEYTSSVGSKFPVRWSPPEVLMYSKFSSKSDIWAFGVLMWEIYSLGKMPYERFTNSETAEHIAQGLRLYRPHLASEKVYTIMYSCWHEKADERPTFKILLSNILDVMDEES

As usually defined, the IC50 is the point on the concentration scale where inhibition reaches its midpoint. Turning to `C=CC(=O)N(C)[C@@H]1C[C@@](C)(Oc2nc(-c3cnn(C)c3)cn3nccc23)[C@H]1C` (single isomer, unassigned) [Example 108], the IC50 at BTK is below 1 nM; in test [1] (Homo sapiens, B-cell), below 1000 nM.

As to `C=CC(=O)N1C[C@H]2C[C@@H](Oc3nc(-c4cnn(C)c4)cn4ncc(C)c34)[C@H]2C1` [Example 197, 1-((1S,5R,6R)-6-((3-methyl-6-(1-methyl-1H-pyrazol-4-yl)pyrazolo[1,5-a]pyrazin-4-yl)oxy)-3-azabicyclo[3.2.0]heptan-3-yl)prop-2-en-1-one], the IC50 was below 1 nM on BTK and below 1000 nM in test [1] (setting [2]).

Consider `CC#CC(=O)N1CC(C)(C)OC(C)(COc2nc(-c3cnn(C)c3)cn3nccc23)C1` (single isomer, unassigned) [Example 121, 1-(2,2,6-trimethyl-6-(((6-(1-methyl-1H-pyrazol-4-yl)pyrazolo[1,5-a]pyrazin-4-yl)oxy)methyl)morpholino)but-2-yn-1-one], for which the IC50 on BTK was 1 to 10 nM; in test [1] (setting [2]), below 1000 nM.

As for `CC#CC(=O)N(CC(F)F)[C@H]1C[C@@](C)(Oc2nc(-c3cnn(C)c3)cn3nccc23)C1` [Example 233, N-(2,2-difluoroethyl)-N-((1s,3s)-3-methyl-3-((6-(1-methyl-1H-pyrazol-4-yl)pyrazolo[1,5-a]pyrazin-4-yl)oxy)cyclobutyl)but-2-ynamide], the results for the IC50 (at BTK; in test [1] (setting [2])) were below 1 nM and below 1000 nM, respectively.

On to `C=CC(=O)N1CCC[C@@H](Oc2cc(-c3cnn(C)c3)cn3nccc23)CC1` [Example 66, 1-[(4R)-4-[6-(1-methylpyrazol-4-yl)pyrazolo[1,5-a]pyridin-4-yl]oxyazepan-1-yl]prop-2-en-1-one], for which the values for the IC50 (at BTK; in test [1] (setting [2])) were below 1 nM and below 1000 nM, respectively.

Consider `C=CC(=O)N1CCC[C@@H](Oc2nc(-c3cnn(C)c3)cc3nccn23)CC1` (single isomer, unassigned) [Example 34, (S) or (R)-1-(4-((7-(1-methyl-1H-pyrazol-4-yl)imidazo[1,2-c]pyrimidin-5-yl)oxy)azepan-1-yl)prop-2-en-1-one], for which the IC50 was 1 to 10 nM at BTK and below 1000 nM in test [1] (setting [2]).

Turning to `C=CC(=O)N1CCC[C@@H](Oc2nc(-c3cnn(C)c3)cn3ncc(C#N)c23)CC1` [Example 59, (R)-4-((1-acryloylazepan-4-yl)oxy)-6-(1-methyl-1H-pyrazol-4-yl)pyrazolo[1,5-a]pyrazine-3-carbonitrile], the 50% inhibitory concentration (IC50) was below 1 nM at BTK and below 1000 nM in test [1] (setting [2]).

For `C=CC(=O)N1CCC[C@](F)(COc2nc(-c3cnn(C)c3)cn3nccc23)C1` [Example 187, (R)-1-(3-fluoro-3-(((6-(1-methyl-1H-pyrazol-4-yl)pyrazolo[1,5-a]pyrazin-4-yl)oxy)methyl)piperidin-1-yl)prop-2-en-1-one], the figures for the IC50 (on BTK; in test [1] (setting [2])) were below 1 nM and below 1000 nM, respectively.

For `C=CC(=O)N1CCC[C@@H](Oc2nc(-c3cnn(C)c3)cn3ncc(F)c23)CC1` [Example 61, 1-[(4R)-4-[3-fluoro-6-(1-methylpyrazol-4-yl)pyrazolo[1,5-a]pyrazin-4-yl]oxyazepan-1-yl]prop-2-en-1-one], the IC50 is below 1 nM on BTK and below 1000 nM in test [1] (setting [2]).

For `C=CC(=O)NC12CCCC(Oc3nc(-c4cnn(C)c4)cn4nccc34)(C1)C2` [Example 224, N-(5-((6-(1-methyl-1H-pyrazol-4-yl)pyrazolo[1,5-a]pyrazin-4-yl)oxy)bicyclo[3.1.1]heptan-1-yl)acrylamide], the IC50 at BTK is below 1 nM; in test [1] (setting [2]), 1000 to 10000 nM.

Regarding `CN[C@H]1C[C@@](C)(Oc2nc(-c3cnn(C)c3)cn3nccc23)C1(C)C` (racemic) [Example 139, racemic (1S,3R)—N,2,2,3-tetramethyl-3-((6-(1-methyl-1H-pyrazol-4-yl)pyrazolo[1,5-a]pyrazin-4-yl)oxy)cyclobutan-1-amine], the IC50 at BTK was below 1 nM; in test [1] (read-out: IC50) it was below 1000 nM.

Take `CC#CC(=O)N(C)[C@H]1CC[C@@H]2C[C@]2(Oc2nc(-c3cnn(C)c3)cn3nccc23)C1` (single isomer, unassigned) [Example 113]: the IC50 on BTK is 1 to 10 nM; in test [1] (setting [2]) it was 1000 to 10000 nM.

`C=CC(=O)N1CCCC[C@H](Oc2nc(-c3cnn(C)c3)cn3nccc23)C1` [Example 55, (S)-1-(3-((6-(1-methyl-1H-pyrazol-4-yl)pyrazolo[1,5-a]pyrazin-4-yl)oxy)azepan-1-yl)prop-2-en-1-one]: the values for the half-inhibitory concentration (IC50) (at BTK; in test [1] (setting [2])) were 10 to 1000 nM and above 10000 nM, respectively.

Take `C=CC(=O)N(C)[C@@H]1CC[C@H](Oc2nc(-c3cnn(C)c3)cn3ncc(-c4ccccc4)c23)C1` [Example 173, N-methyl-N-((1R,3S)-3-(6-(1-methylpyrazol-4-yl)-3-phenyl-pyrazolo[1,5-a]pyrazin-4-yl)oxycyclopentyl)prop-2-enamide]: the IC50 on BTK was in the range of 1 to 10 nM; in test [1] (setting [2]) it was 1000 to 10000 nM.

In the case of `C=CC(=O)N1CC[C@@]2(CC[C@@H](Oc3nc(-c4cnn(C)c4)cn4nccc34)C2)C1` (single isomer, unassigned) [Example 207], the IC50 on BTK was 1 to 10 nM; in test [1] (setting [2]) it was 1000 to 10000 nM.

Regarding `C=CS(=O)(=O)N1CCC[C@H](Oc2nc(-c3cnn(C)c3)cn3nccc23)CC1` [Example 33, (S)-6-(1-methyl-1H-pyrazol-4-yl)-4-((1-(vinylsulfonyl)azepan-4-yl)oxy)pyrazolo[1,5-a]pyrazine], the concentration for half-maximal inhibition (IC50) on BTK is 1 to 10 nM; in test [1] (setting [2]), 1000 to 10000 nM.

Take `C=CC(=O)N(C)[C@H]1C[C@H](Oc2nc(-c3cnn(C)c3)cn3ncc(C(F)F)c23)C1` [Example 64, N-((trans)-3-((3-(difluoromethyl)-6-(1-methyl-1H-pyrazol-4-yl)pyrazolo[1,5-a]pyrazin-4-yl)oxy)cyclobutyl)-N-methylacrylamide]: the IC50 is 1 to 10 nM on BTK and below 1000 nM in test [1] (setting [2]).

Turning to `C=CC(=O)N1[C@@H]2CC[C@H]1[C@@H](Oc1nc(-c3cnn(C)c3)cn3nccc13)C2` [Example 235, 1-((1S,2S,4R)-2-((6-(1-methyl-1H-pyrazol-4-yl)pyrazolo[1,5-a]pyrazin-4-yl)oxy)-7-azabicyclo[2.2.1]heptan-7-yl)prop-2-en-1-one], the IC50 on BTK was below 1 nM; in test [1] (setting [2]) it was below 1000 nM.

With `C=CS(=O)(=O)N1CCC[C@@H](Oc2nc(-c3cnn(C)c3)cn3nccc23)C1` [Example 5, (R)-6-(1-methyl-1H-pyrazol-4-yl)-4-((1-(vinylsulfonyl)piperidin-3-yl)oxy)pyrazolo[1,5-a]pyrazine], the IC50 was below 1 nM on BTK and above 10000 nM in test [1] (setting [2]).

As to `CC#CC(=O)N(C)[C@H]1CC[C@H]2C[C@@]2(Oc2nc(-c3cnn(C)c3)cn3nccc23)C1` (single isomer, unassigned) [Example 116], the IC50 on BTK is below 1 nM; in test [1] (setting [2]), below 1000 nM.

Take `C#CC(=O)N1CCC[C@@H](Oc2nc(-c3cnn(C)c3)cn3nccc23)CC1` [Example 30, (R)-1-(4-((6-(1-methyl-1H-pyrazol-4-yl)pyrazolo[1,5-a]pyrazin-4-yl)oxy)azepan-1-yl)prop-2-yn-1-one]: the values for the IC50 (at BTK; in test [1] (setting [2])) were below 1 nM and below 1000 nM, respectively.

`CC#CC(=O)N(C)[C@@H]1CCC[C@H](Oc2nc(-c3cnn(C)c3)cn3nccc23)C1` [Example 178, N-methyl-N-((1R,3S)-3-((6-(1-methyl-1H-pyrazol-4-yl)pyrazolo[1,5-a]pyrazin-4-yl)oxy)cyclohexyl)but-2-ynamide]: the IC50 at BTK fell in the range of 10 to 1000 nM; in test [1] (setting [2]), 1000 to 10000 nM.

For the compound `CN(C)C/C=C/C(=O)N(C)[C@H]1CCC[C@@H](Oc2nc(-c3cnn(C)c3)cn3ncc(F)c23)C1` [Example 93, (E)-4-(dimethylamino)-N-((1S,3R)-3-((3-fluoro-6-(1-methyl-1H-pyrazol-4-yl)pyrazolo[1,5-a]pyrazin-4-yl)oxy)cyclohexyl)-N-methylbut-2-enamide], the results for the IC50 (on BTK; in test [1] (setting [2])) were 1 to 10 nM and below 1000 nM, respectively.
